Source: patent US20150141411A1, “SUBSTITUTED 3,4-DIHYDRO-2H-PYRIDO[1,2-A]PYRAZINE-1,6-DIONE DERIVATIVES USEFUL FOR THE TREATMENT OF (INTER ALIA) ALZHEIMER'S DISEASE” (Janssen Pharmaceuticals, Inc., priority 2012, published 2015)

Tests used:
Design in all cases: species or system mouse
[1] = test system: Aβ42; assay: In vivo efficacy: brain soluble Aβ42 in non-transgenic rodents (MSD electrochemiluminescence multiplex); conditions: Mus musculus, po, 4 h, dose 30 mg/kg oral dosing, brain soluble fraction, animals sacrificed after 4 h, untreated animals (Ctrl) set at 100, read-out: Aβ42 (% vs Ctrl)_Mean
Source text: (§1) To determine whether acute administration of an Aβ42 lowering agent would reduce Aβ42 levels in vivo, non-transgenic rodents, e.g. mice or rats were used. Animals treated with the Aβ42 lowering agent were examined and compared to those untreated or treated with vehicle and brain levels of soluble Aβ42, Aβ40, Aβ38, and Aβ37 were quantitated by Meso Scale Discovery's (MSD) electrochemiluminescence detection technology. Treatment periods varied from hours (h) to days and were adjusted based on the results of the Aβ42 lowering once a time course of onset of effect could be established.
(§2) A typical protocol for measuring Aβ42 lowering in vivo is shown but it is only one of many variations that could be used to optimize the levels of detectable Aβ. For example, Aβ42 lowering compounds were formulated in 20% of Captisol® (a sulfo-butyl ether of β-cyclodextrin) in water or 20% hydroxypropyl βcyclodextrin. The Aβ42 lowering agents were administered as a single oral dose or by any acceptable route of administration to overnight fasted animals. After 4 h, the animals were sacrificed and Aβ42 levels were analysed.
(§3) Blood was collected by decapitation and exsanguinations in EDTA-treated collection tubes. Blood was centrifuged at 1900 g for 10 minutes (min) at 4° C. and the plasma recovered and flash frozen for later analysis. The brain was removed from the cranium and hindbrain. The cerebellum was removed and the left and right hemisphere were separated. The left hemisphere was stored at −18° C. for quantitative analysis of test compound levels. The right hemisphere was rinsed with phosphate-buffered saline (PBS) buffer and immediately frozen on dry ice and stored at −80° C. until homogenization for biochemical assays.
(§4) Mouse brains from non-transgenic animals were resuspended in 8 volumes of 0.4% DEA (diethylamine)/50 mM NaCl containing protease inhibitors (Roche-11873580001 or 04693159001) per gram of tissue, e.g. for 0.158 g brain, add 1.264 ml of 0.4% DEA. All samples were homogenized in the FastPrep-24 system (MP Biomedicals) using lysing matrix D (MPBio #6913-100) at 6 m/s for 20 seconds. Homogenates were centrifuged at 20800×g for 5 min and supernatants collected. Supernatants were centrifuged at 221.300×g for 50 min. The resulting high speed supernatants were then transferred to fresh eppendorf tubes. Nine parts of supernatant were neutralized with 1 part 0.5 M Tris-HCl pH 6.8 and used to quantify Aβ.
(§5) To quantify the amount of Aβ42, Aβ40, Aβ38, and Aβ37 in the soluble fraction of the brain homogenates, simultaneous specific detection of Aβ42, Aβ40, Aβ38, and Aβ37 was performed using MSD's electro-chemiluminescence multiplex detection technology. In this assay purified monoclonal antibodies specific for Abeta37 (JRD/Aβ37/3), Abeta38 (J&JPRD/Aβ38/5), Abeta40 (JRF/cAβ40/28), and Abeta42 (JRF/cAβ42/26) were coated on MSD 4-plex plates. Briefly, the standards (a dilution of synthetic Aβ42, Aβ40, Aβ38, and Aβ37) were prepared in 1.5 ml Eppendorf tube in Ultraculture, with final concentrations ranging from 10000 to 0.3 pg/m. The samples and standards were co-incubated with Sulfo-tag labelled JRF/rAβ/2 antibody to the N-terminus of Aβ as detector antibody. 50 μl of conjugate/sample or conjugate/standards mixtures were then added to the antibody-coated plate. The plate was allowed to incubate overnight at 4° C. in order to allow formation of the antibody-amyloid complex. Following this incubation and subsequent wash steps the assay was finished by adding read buffer according to the manufacturer's instructions (Meso Scale Discovery, Gaitherburg, Md.).
(§6) The SULFO-TAG emits light upon electrochemical stimulation initiated at the electrode. MSD Sector instrument SI6000 was used for signal read-out.
In this model a Aβ42 lowering compared to untreated animals would be advantageous, in particular a Aβ42 lowering with at least 10%, more in particular a Aβ42 lowering with at least 20%. […]

[2] = test system: Aβ38; assay: In vivo efficacy: brain soluble Aβ38 in non-transgenic rodents (MSD electrochemiluminescence multiplex); conditions: Mus musculus, po, 4 h, dose 30 mg/kg oral dosing, brain soluble fraction, animals sacrificed after 4 h, untreated animals (Ctrl) set at 100, read-out: Aβ38 (% vs Ctrl)_Mean
Source text: as §1, with “Aβ38 increasing agents” for “Aβ42 lowering agent”, “increase Aβ38” for “reduce Aβ42”, “MSD” for “Meso Scale Discovery's (MSD)”, “Aβ38 increase” for “Aβ42 lowering”
as §2, with “measuring Aβ38 increase” for “measuring Aβ42 lowering”, “example, Aβ38 increasing agents” for “example, Aβ42 lowering compounds”, “(a sulfobutyl” for “(a sulfo-butyl”, “The Aβ38 increasing” for “The Aβ42 lowering”, “and Aβ38” for “and Aβ42”
as §3, §4
as §5, with “(MesoScale” for “(Meso Scale”
as §6
In this model a Aβ38 increase compared to untreated animals would be advantageous, in particular a Aβ38 increase with at least 10%, more in particular a Aβ38 increase with at least 20%. […]

[3] = test system: Aβ40; assay: In vivo efficacy: brain soluble Aβ40 in non-transgenic rodents (MSD electrochemiluminescence multiplex); conditions: Mus musculus, po, 4 h, dose 30 mg/kg oral dosing, brain soluble fraction, animals sacrificed after 4 h, untreated animals (Ctrl) set at 100, read-out: Aβ40 (% vs Ctrl)_Mean
Source text: as §1, §2, §3, §4, §5, §6
The results are shown in Table 5 (dose 30 mg/kg oral dosing) (value for untreated animals as control (Ctrl) was set at 100): […]

Cc1cn(-c2ccc3n(c2=O)CC(C)N(Cc2c[nH]c4cc(C(F)(F)F)ccc24)C3=O)cn1 (stereo not drawn) [compound 203]
response vs control in vivo at 30 mg/kg [1]: 67%
response vs control in vivo at 30 mg/kg [2]: 133%
response vs control in vivo at 30 mg/kg [3]: 137%
